Paper PMC9513234, “Synthesis and Biological Evaluation of Termini-Modified and Cyclic Variants of the Connexin43 Inhibitor Peptide5” (Frontiers in Chemistry, 2022)

Assays:
[1] = design: method as in Kumagai et al., 1991; conditions: ref Kumagai et al., 1991; cited from earlier work
[2] = Human serum stability assay (RP-HPLC)
Procedure: We then evaluated the N-methylated variants 7 and 8, D amino acid variants 9 and 10, and the two carbo cyclic peptides 39 and 42. Each peptide was incubated with 25% aq. human serum at 37°C, and 6 aliquots were extracted within 48 h. The stability of each peptide upon exposure to human serum was then analyzed via analytical RP HPLC, and the amount of peptide still present at each time point was recorded relative to t = 0 h.
Whole blood was collected from a healthy volunteer and stored in a covered test tube and was allowed to clot by leaving it undisturbed at r.t. for ca. 1 h. The clot was removed by centrifugation at 1,000-2,000 x g for 10 min and the resulting supernatant was designated as the serum. The serum was collected and stored in 0.5 mL aliquots, whereby the samples were stored at - 20 °C.
200 µM concentration of peptide was incubated in 25% aq. human serum (1.7 mL) and left to shake at 37 °C. Aliquots of human serum-peptide mixture (270 µL) were taken at given times (0 h, 1 h, 4 h, 8 h, 24 h, and 48 h) and threefold excess of acetonitrile (810 µL) was added to the aliquot and left for 1 h at 0 °C. The samples underwent centrifugation (14,500 rpm) for 30 min at r.t. and the supernatant was subsequently collected. Upon evaporation of the solvents, the resulting dry, pale-yellow residue was dissolved in water containing 0.1 % TFA.
The dissolved solution was analysed via analytical RP HPLC and the quantity of the peptide was expressed as a percentage relative to the peptide peak area obtained at time zero (i.e. 100% peptide amount at t = 0 h). A scatterplot graph representing percentage of peptide versus time was generated.

hemichannels = tested on: hemichannels; design: method as in O’Carroll et al., 2008; conditions: in vitro; ref O’Carroll et al., 2008; cited from earlier work
gap junctions = conditions: in vitro, higher concentrations; ref O’Carroll et al., 2008; cited from earlier work
[3] = cited from earlier work
[4] = tested on: gap junctions in hCMVEC cells; conditions: 100 µM, mean ± SEM
Procedure: We next investigated the ability of peptide5 variants to inhibit gap junctional communication using a scrape loading assay. In this assay, the cells in culture are loaded with a dye (Lucifer Yellow dilithium salt (LY), M.W. 457.25 Da) of molecular size (<1 kDa) that is able to transit through the gap junctions and the degree of dye spread is then measured by counting the number of cells that contain LY (Supplementary Material, Method 4) ^1. Consistent with our previous study, peptide5 (1) and Cbx reduced the degree of dye spread following incubation with LY (56.16 ± 2.1%; p < 0.0001 and 16.2 ± 1.1%; p < 0.0001, respectively) compared to the untreated controls (Figure 12).
Human cerebral microvascular endothelial cells (hCMVEC) were purchased from Applied Biological Materials (ABM) Inc, Canada (cat # T0259) (O'Carroll et al., 2015). Cells were cultured in 1 μg/cm^2 collagen I (Gibco) coated T75 flasks from Corning (NY, USA). The growth media was M199 media (Gibco), supplemented with 10% FBS, 1 μg/mL hydrocortisone (Sigma), 3 μg/mL human FGF (Peprotech), 10 μg/mL human EGF (Peprotech), 10 μg/mL heparin (Sigma), 2 mM Glutamax (Gibco), and 80 μM butyryl cAMP (Sigma).
For experiments hCMVECs cells were plated M199 media at a density of 4 x 10^5 cells per well in a collagen coated (1 µg/cm^2) 12-well plate the day prior to the experiment to ensure a confluent monolayer of hCMVECs. On the day of the experiment cells were pre-incubated in carbenoxolone, (100 µM) Peptide5 (5–100 µM) or modified analogues (100 µM) or M199 as a negative control. Cells were washed three times with phosphate buffered saline (PBS) without Ca^2+ or Mg^2+ and incubated in 0.05% Lucifer Yellow (LY) (Sigma), a fluorescent dye that is transferred through coupled gap junction channels (el-Fouly, Trosko, & Chang, 1987), and scrape-wounded with a size 10 carbon steel surgical blade (Swann-Morton, England). Following a 5 minute incubation at 37 °C in 95% O2 and 5% CO2 without light, the 0.05% LY solution was removed. Cells were rinsed four times with HBSS containing Ca^2+ ^+, and then fixed in 4% paraformaldehyde (PFA) in PBS at pH 7.4 for 10 minutes at room temperature. Cells were then washed 3 times in PBS to remove PFA before fluorescent imaging. Fluorescent images were visualized using a Nikon TE2000E inverted fluorescent microscope (10x magnification, 0.3 numerical aperture), and captured using a Digital Sight CCD camera and Eclipse Net software (Nikon). Three images within each well from three independent experiments were taken for analysis, and the total number of cells showing dye uptake from those that had been loaded were counted manually by masked observers. Each peptide was tested in at least an n of 2 separate experiments.

Substance	increase in binding compared to its linear form [1] [fold]	time to complete degradation in human serum [2] [h]	concentration selectively inhibiting hemichannels (hemichannels) [µM]	concentration inhibiting both gap junctions and hemichannels (gap junctions) [µM]	half-life in rat serum [3] [min]	LY dye spread (number of LY-positive cells) as percentage of untreated control [4] [%]
cilengitide	10	–	–	–	–	–
H-VDCFLSRPTEKT-OH [peptide5, H2N-VDCFLSRPTEKT-CO2H]	–	≤ 10	≥ 5	500	5	56.16 ± 2.1
